Data on three molecules can be found in ChEMBL document CHEMBL1149806, “Synthesis and antiproliferative activities of isoindigo and azaisoindigo derivatives” (Eur J Med Chem, 2008).

For assay [1], the system named is KB. As to the kind of experiment: Antiproliferative activity against human KB cells at 10 uM after 72 hrs by MTS test. The class given is functional.
For assay [2], the system named is KB. The assay is described as follows: Antiproliferative activity against human KB cells after 72 hrs by MTS test. The assay is classed as functional, cell-based.
The subject of another assay is HL-60. As to the kind of experiment: Antiproliferative activity against human HL60 cells at 10 uM after 72 hrs by MTS test. The class given is functional. To be noted: HL-60, 72 h.
The next assay relates to K562. The assay is described as follows: Antiproliferative activity against human K562 cells at 10 uM after 72 hrs by MTS test. The class given is functional. To be noted: K562, 72 h.
For assay [3], the system named is KB. As to the kind of experiment: Antiproliferative activity against human KB cells at 0.25 nM after 72 hrs by MTS test. The class given is functional.

SMILES strings stand for the structures.

`O=C1Nc2ccccc2/C1=C1\C(=O)Nc2ccccc21` [ISOINDIGO]: the inhibition at 10 µM in the assay with KB [1] worked out at 92%; with HL-60, 53%; in the assay with K562, 64%. This molecule returned an IC50 in the assay with KB [2] of 1.6 µM.
`CC(=O)O[C@@]12CO[C@@H]1C[C@H](O)[C@@]1(C)C(=O)[C@H](O)C3=C(C)[C@@H](OC(=O)[C@H](O)[C@@H](NC(=O)OC(C)(C)C)c4ccccc4)C[C@@](O)([C@@H](OC(=O)c4ccccc4)[C@H]21)C3(C)C` [DOCETAXEL]: the inhibition at 0.00025 µM in the assay on KB [3] is 71%. Moreover, the inhibition at 10 µM in the assay on HL-60 stood at 46%; in the assay with K562, 32%.
In the case of `CC(=O)OC[C@H]1O[C@@H](N2C(=O)/C(=C3/C(=O)Nc4ccc(OC(F)(F)F)cc43)c3ccccc32)[C@H](OC(C)=O)[C@@H](OC(C)=O)[C@@H]1OC(C)=O`, the inhibition at 10 µM stood at 0% in the assay with KB [1], 4% with HL-60 and 3% in the assay on K562.
